For experiment [1], the target named is T1, human RORγt (Ligand Binding Domain) (Homo sapiens, UniProt P51449).
T1 construct: purchased Crelux (Planegg, Germany) batch no PC5032-1
T1 sequence (P51449 269-508 limits assumed): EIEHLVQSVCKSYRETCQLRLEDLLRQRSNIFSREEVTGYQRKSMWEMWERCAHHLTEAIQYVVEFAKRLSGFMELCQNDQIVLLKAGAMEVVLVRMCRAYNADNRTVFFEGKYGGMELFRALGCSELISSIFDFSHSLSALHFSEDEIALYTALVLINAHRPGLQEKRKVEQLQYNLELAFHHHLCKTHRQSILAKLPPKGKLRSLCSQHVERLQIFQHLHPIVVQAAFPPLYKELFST
Briefly: Fluorescence Polarization (FP) Assay. The note with it: Fluorescence Polarization (FP) Assay; values given as upper bounds of activity ranges; read-out: FP activity range. Put shortly:
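Binding to the ligand pocket followed by fluorescence polarization with a TAMRA-tagged RORγt ligand probe of 910 g/mole. Negative control wells received DMSO only.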

Experiment [2] has as its target T2, yeast Gal4-DNA binding domain fused to the ligand binding domain of human RORγ (Homo sapiens, UniProt P51449).
T2 construct: host or cells: HEK293t
T2 sequence (P51449 269-508 limits assumed): T1 sequence (P51449 269-508 limits assumed)
Briefly: RORγ Reporter Assay (Gal4). The note with it: values given as lower bounds of ranges; for Gal4 activity range @ 0.1 μM (% inhibition): RORγ Reporter Assay (Gal4) at 0.1 μM; for Gal4 activity range @ 1 μM (% inhibition): RORγ Reporter Assay (Gal4) at 1 μM. Format: cell-based. On the procedure:
The activity of the compounds was evaluated using a Fluorescence Polarization (FP) Assay and, in most cases, a Th17 Assay and/or RORγ Reporter assay (also referred to as Gal4 assay). The FP assay is an in vitro assay monitoring binding within the ligand binding pocket. The RORγ and the Th17 assays are both cell-based assays monitoring functional activity of the compound assayed.
Cell-based RORγ functional assays were performed using a commercially available assay product (INDIGO Biosciences, State College, Pa., USA; product # IB04001). The RORγ reporter cells are HEK293t cells transfected with one vector that provides high level constitutive expression of a hybrid protein comprised of the yeast Gal4-DNA binding domain fused to the ligand binding domain of human RORγ, and a second vector comprising the firefly luciferase cDNA functionally linked to the upstream activation sequence (UAS) of yeast Gal4. A suspension of RORγ Reporter Cells was prepared using the protocol and culture medium provided in the kit product, and 100 μl of the Reporter Cell suspension was then dispensed into wells of a white, collagen-treated, 96-well assay plate. Concentrated stocks of test compounds were prepared in DMSO, then further diluted using media provided in the kit to generate ‘2×-concentration’ treatment media. 100 μl of medium for each respective treatment concentration dispensed into triplicate assay wells, thereby combining with the reporter cells. All media formulations contained 10% charcoal stripped Fetal Bovine Serum, but are otherwise proprietary to INDIGO Biosciences. Final treatment concentrations for each test compound were 1,000 nM and 100 nM, each with 0.1% residual DMSO. Separate control treatments were media supplemented with vehicle only (0.1% DMSO) to determine the constitutive level of RORγ activity in the reporter cells, and the reference inverse-agonist ursolic acid (f.c. 6,000 nM to 8.2 nM in 3-fold decrements) to establish a positive control inverse-agonist dose response. Assay plates were placed in a 37° C., 5% CO2, 85% humidity incubator for 24 hour. Treatment media were then discarded, 100 μl of luciferase detection reagent was added to each well, and relative light units (RLUs) were quantified from each assay well using a plate reading luminometer. Values of average RLU+/−standard deviation were computed for all treatment sets, followed by the calculations of fold-reduction: [Average RLUVehicle/Average RLUTest Cmpd]. Percent-reduction of RORγ activity in response to respective test compound treatments was calculated: [100*(1−[Ave RLUTest Cmpd/Ave RLUVehicle)] where the theoretical minimum reduction (0% reduction) derives from Vehicle treatment only, no treatment compound.

Molecules are shown by their SMILES.

`COC1CCCCC1CNc1ncnc(N2CCC[C@@H]2c2ccc(C(F)(F)F)cc2)c1F` (stereo partly drawn) [Example 168, 5-fluoro-N-[(2-methoxycyclohexyl)methyl]-6-[(2R)-2-[4-(trifluoromethyl)phenyl]pyrrolidin-1-yl]pyrimidin-4-amine]: the IC50 in experiment [1] is less than 0.5 µM. Moreover, the “Gal4 activity range @ 0.1 μM (% inhibition)” value in experiment [2] is on record as greater than 50 % inhibition.
Consider `Fc1c(NCC2CCOCC2)ncnc1N1CCOC[C@@H]1c1ccc(C(F)(F)F)cc1` [Example 247, 5-fluoro-N-(tetrahydropyran-4-ylmethyl)-6-[(3S)-3-[4-(trifluoromethyl)phenyl]morpholin-4-yl]pyrimidin-4-amine], for which the IC50 in experiment [1] is less than 10 µM. In addition, in experiment [2], the “Gal4 activity range @ 0.1 μM (% inhibition)” value is on record as greater than 20 % inhibition and the “Gal4 activity range @ 1 μM (% inhibition)” value is listed as greater than 80 % inhibition.
The matching figures for `Fc1c(NCc2ccc(Cn3cncn3)cc2)ncnc1N1CCCC1c1ccc(C(F)(F)F)cc1` (stereo not drawn) [Example 115, 5-fluoro-N-[[4-(1,2,4-triazol-1-ylmethyl)phenyl]methyl]-6-[2-[4-(trifluoromethyl)phenyl]pyrrolidin-1-yl]pyrimidin-4-amine]: less than 0.5 µM, greater than 50 % inhibition and greater than 80 % inhibition.
Consider `Fc1c(NCc2ccc(N3CCOCC3)cc2)ncnc1N1CCCC1c1ccc(C(F)(F)F)cc1` (stereo not drawn) [Example 56, 5-fluoro-N-[(4-morpholinophenyl)methyl]-6-[2-[4-(trifluoromethyl)phenyl]pyrrolidin-1-yl]pyrimidin-4-amine], for which the IC50 in experiment [1] was less than 2 µM. Further, in experiment [2], the “Gal4 activity range @ 1 μM (% inhibition)” value is on record as greater than 20 % inhibition.
Regarding `Fc1c(NCc2cccs2)ncnc1N1CCC[C@@H]1c1ccc(C(F)(F)F)cc1` [Example 203, 5-fluoro-N-(2-thienylmethyl)-6-[(2R)-2-[4-(trifluoromethyl)phenyl]pyrrolidin-1-yl]pyrimidin-4-amine], the IC50 in experiment [1] was less than 2 µM. For the same molecule, in experiment [2], the “Gal4 activity range @ 0.1 μM (% inhibition)” value was greater than 0 % inhibition and the “Gal4 activity range @ 1 μM (% inhibition)” value is reported as greater than 50 % inhibition.
The matching figures for `CC(C)(O)Cc1ccc(CNc2ncnc(N3CCCC3c3ccc(C(F)(F)F)cc3)c2F)cc1` (stereo not drawn) [Example 98, 1-[4-[[[5-fluoro-6-[2-[4-(trifluoromethyl)phenyl]pyrrolidin-1-yl]pyrimidin-4-yl]amino]methyl]phenyl]-2-methyl-propan-2-ol]: less than 1 µM, greater than 20 % inhibition and greater than 80 % inhibition.
For `NC(=O)Cc1ccc(Cn2ccc3c(N4CCOC[C@@H]4c4ccc(C(F)(F)F)cn4)ncnc32)cc1` [Example 328, 2-[4-[[4-[(3S)-3-[5-(trifluoromethyl)-2-pyridyl]morpholin-4-yl]pyrrolo[2,3-d]pyrimidin-7-yl]methyl]phenyl]acetamide], in that order: less than 0.5 µM, greater than 80 % inhibition and greater than 80 % inhibition.
For `O=S(=O)(NC1CC1)c1ccc(CNc2ncnc(N3CCC[C@@H]3c3ccc(C(F)(F)F)cc3)c2F)cc1` [Example 224, N-cyclopropyl-4-[[[5-fluoro-6-[(2R)-2-[4-(trifluoromethyl)phenyl]pyrrolidin-1-yl]pyrimidin-4-yl]amino]methyl]benzenesulfonamide], in that order: less than 0.5 µM, greater than 80 % inhibition and greater than 80 % inhibition.
As to `OC1(CNc2ncnc(N3CCC[C@@H]3c3ccc(C(F)(F)F)cc3)c2F)CCSC1` (stereo partly drawn) [Example 165, 3-[[[5-fluoro-6-[(2R)-2-[4-(trifluoromethyl)phenyl]pyrrolidin-1-yl]pyrimidin-4-yl]amino]methyl]tetrahydrothiophen-3-ol], the IC50 in experiment [1] was less than 0.5 µM. In addition, the “Gal4 activity range @ 0.1 μM (% inhibition)” value in experiment [2] is listed as greater than 50 % inhibition.
In the case of `O=S1(=O)CCOC(CNc2ncnc(N3CCC[C@@H]3c3ccc(C(F)(F)F)cc3)c2F)C1` (stereo partly drawn) [Example 202, N-[(4,4-dioxo-1,4-oxathian-2-yl)methyl]-5-fluoro-6-[(2R)-2-[4-(trifluoromethyl)phenyl]pyrrolidin-1-yl]pyrimidin-4-amine], in experiment [1], the IC50 is less than 10 µM. In experiment [2], the “Gal4 activity range @ 0.1 μM (% inhibition)” value is given as greater than 0 % inhibition and the “Gal4 activity range @ 1 μM (% inhibition)” value is on record as greater than 50 % inhibition.
The matching figures for `COc1ccc(C2CCCN2c2ncnc(NCc3ccc(C)nc3)c2F)cc1` (stereo not drawn) [Example 90, 5-fluoro-6-[2-(4-methoxyphenyl)pyrrolidin-1-yl]-N-[(6-methyl-3-pyridyl)methyl]pyrimidin-4-amine]: less than 1 µM, greater than 0 % inhibition and greater than 20 % inhibition.
The matching figures for `CS(=O)(=O)CC1(CNc2ncnc(N3CC(F)(F)CC3c3ccc(C(F)(F)F)cc3)c2F)CCOCC1` (stereo not drawn) [Example 260, 6-[4,4-difluoro-2-[4-(trifluoromethyl)phenyl]pyrrolidin-1-yl]-5-fluoro-N-[[4-(methylsulfonylmethyl)tetrahydropyran-4-yl]methyl]pyrimidin-4-amine]: less than 0.5 µM, greater than 50 % inhibition and greater than 80 % inhibition.
The matching figures for `OCCC1(CNc2ncnc(N3CCC[C@@H]3c3ccc(C(F)(F)F)cc3)c2F)CCOCC1` [Example 221, 2-[4-[[[5-fluoro-6-[(2R)-2-[4-(trifluoromethyl)phenyl]pyrrolidin-1-yl]pyrimidin-4-yl]amino]methyl]tetrahydropyran-4-yl]ethanol]: less than 0.5 µM, greater than 50 % inhibition and greater than 80 % inhibition.
In the case of `NC(=O)Cc1ccc(CNc2ncnc(N3CC(F)(F)CC3c3ccc(C(F)(F)F)cc3)c2F)cc1` (stereo not drawn) [Example 231, 2-[4-[[[6-[4,4-difluoro-2-[4-(trifluoromethyl)phenyl]pyrrolidin-1-yl]-5-fluoro-pyrimidin-4-yl]amino]methyl]phenyl]acetamide], the IC50 in experiment [1] was less than 0.5 µM. In experiment [2], the “Gal4 activity range @ 0.1 μM (% inhibition)” value is recorded as greater than 50 % inhibition and the “Gal4 activity range @ 1 μM (% inhibition)” value is greater than 80 % inhibition.
The matching figures for `COCCNS(=O)(=O)c1ccc(CNc2ncnc(N3CCC[C@@H]3c3ccc(C(F)(F)F)cc3)c2F)cc1` [Example 320, 4-[[[5-fluoro-6-[(2R)-2-[4-(trifluoromethyl)phenyl]pyrrolidin-1-yl]pyrimidin-4-yl]amino]methyl]-N-(2-methoxyethyl)benzenesulfonamide]: less than 0.5 µM, greater than 80 % inhibition and greater than 80 % inhibition.
The matching figures for `CC1(CNc2ncnc(N3CCOC[C@@H]3c3ccc(C(F)(F)F)cc3)c2F)CCCCC1O` (stereo partly drawn) [Example 295, 2-[[[5-fluoro-6-[(3S)-3-[4-(trifluoromethyl)phenyl]morpholin-4-yl]pyrimidin-4-yl]amino]methyl]-2-methyl-cyclohexanol]: less than 0.5 µM, greater than 20 % inhibition and greater than 80 % inhibition.
For `NC(=O)CC1CCC(CNc2ncnc(N3CCOC[C@@H]3c3ccc(OC(F)(F)F)cc3)c2F)CC1` (stereo partly drawn) [Example 245, 2-[4-[[[5-fluoro-6-[(3S)-3-[4-(trifluoromethoxy)phenyl]morpholin-4-yl]pyrimidin-4-yl]amino]methyl]cyclohexyl] acetamide], in that order: less than 1 µM, greater than 20 % inhibition and greater than 80 % inhibition.

These data come from patent US10689383B2, “Optionally fused heterocyclyl-substituted derivatives of pyrimidine useful for the treatment of inflammatory, metabolic, oncologic and autoimmune diseases” (NUEVOLUTION A/S, priority 2014, dated 2020).
